These results are taken from patent US9056108B2, “Method of treating atrial fibrillation” (Gilead Sciences, Inc., priority 2009, dated 2015).

Series [1] relates to rabbit isolated heart treated with acetylcholine. Put plainly: Electrically-induced atrial fibrillation in rabbit isolated heart treated with acetylcholine. Here is the method:
Each rabbit was sedated using intramuscular injections of 6 mg/kg xylazine and 40 mg/kg ketamine and then anesthetized using a “cocktail” of ketamine (15 mg/kg)+xylazine (4 mg/kg) in 1.5 ml saline. The ketamine/xylazine cocktail was administered as an i.v. bolus via the marginal ear vein. After anesthesia was confirmed, the thorax was opened and the heart was quickly excised. The heart was placed in a modified Krebs-Henseleit (K-H) physiological saline solution at room temperature. The K-H solution contained (in mmol/L): NaCl 118, KCl 2.8, KH2PO4 1.2, CaCl2 2.5, MgSO4 0.5, pyruvate 2.0, glucose 5.5, Na2EDTA 0.57 and NaHCO3 25. The solution was continuously gassed with 95% O2 and 5% CO2, and its pH was adjusted to 7.4. The aorta was rapidly catheterized and the heart was perfused by the method of Langendorff with K-H solution warmed to 36-36.5° C. at a rate of 20 mL/min with a roller pump (Gilson Minipuls3, Middleton, Wis.). CPP was measured (with a Biopac MP 150 pressure transducer, Goleta, Calif.) from a side port of the aortic catheter. To facilitate exit of fluid from the chamber of the left ventricle (LV), the leaflets of the mitral valve were trimmed with fine spring-handled scissors. The right atrial wall was partially removed. […]

Series [2] relates to isolated canine coronary-perfused right atria. Put plainly: Electrophysiology in isolated coronary-perfused canine right atrial preparations. As to conditions: in presence of ACh 1 μM, ranolazine 5 μM, dronedarone 10 μM. Here is the method:
Experiments were performed using isolated coronary-perfused canine right atrial (RA) and left ventricular (LV) preparations (≈3×1.5×1 cm). Isolation and perfusion of the preparations were as previously described.^9, 15, 16 Briefly, preparations were dissected from hearts removed from anesthetized (sodium pentobarbital) adult mongrel dogs (20-30 kg). Unfolded RA with attached rim of the right ventricle was cannulated and perfused with cold cardioplegic solution (4-8° C.) through the ostium of the right coronary artery; the LV wedge was perfused through a diagonal branch of the left anterior descending coronary artery. Unperfused tissue was removed with a razor blade. Cut ventricular and atrial branches were ligated using silk thread. The preparations were then transferred to a temperature-controlled bath and arterially-perfused with Tyrode's solution by use of a roller pump. The composition of the Tyrode's solution was (in mM): NaCl 129, KCl 4, NaH2PO4 0.9, NaHCO3 20, CaCl2 1.8, MgSO4 0.5, and D-glucose 5.5, buffered with 95% O2 and 5% CO2 (37±0.5° C., pH=7.35)
Transmembrane action potential (AP) recordings were obtained using floating glass microelectrodes at a sampling rate of 40 kHz. A pseudo-electrocardiogram (ECG) was recorded using two electrodes consisting of Ag/AgCl half cells placed in the Tyrode's solution bathing the preparation, 1.0 to 1.5 cm from the two opposite sides of the atrial or ventricular coronary-perfused preparations. Conduction time was approximated by the duration of “P wave” in atria and “QRS complex” in ventricles, at a level representing 10% of “P wave” and “QRS” amplitude. Diastolic threshold of excitation (DTE) was determined by increasing stimulus intensity in 0.01 mA steps. Effective refractory period (ERP) was measured by delivering premature stimuli at progressively shorter S1-S2 intervals after every 10 basic beats at a pacing cycle length (CL) of 500 ms (5 ms steps; 2 times DTE). Post-repolarization refractoriness (PRR) was recognized when ERP exceeded action potential duration measured at 90% repolarization (APD90) in the ventricle and APD measured at 70% repolarization (APD70) in atria. Ventricular ERP was coincident with APD90, whereas atrial ERP was generally coincident with APD70-75.^9 The shortest S1-S1 permitting 1:1 activation was measured by progressively shortening pacing CL starting from a CL of 500 ms.
Stable AP recordings could not be readily obtained in the vigorously contracting perfused preparations. The largest recorded maximum rate of rise of the AP upstroke (Vmax) values per experimental condition were taken for statistical comparison. Only APs having amplitudes of at least 100 mV were considered in the analysis. The largest Vmax criterion was used because this was associated with the largest amplitude and the most negative resting membrane potential, depicting full or near full impalement. In determining use-dependent depression of Vmax, values were normalized to the Vmax value at a CL of 500 ms for each experiment and then averaged.
Because of their dependence on peak INa, Vmax, DTE, PRR, and conduction time as well the shortest S1-S1 interval permitting 1:1 activation are referred to as INa-dependent parameters.
The equilibration period for the coronary-perfused preparations was 30-120 min. The preparations were exposed to 5 μM ranolazine, 10 μM dronedarone (after 30 min washout of ranolazine), and the combination of these agents for at a period of at least 20 min. In time-control experiments, 20 minutes was sufficient to achieve steady-state in the effects of each of the drugs to alter electrophysiologic parameters. Recordings were obtained at a cycle length (CL) of 500 and 300 ms, unless otherwise indicated. […] When determining the shortest S1-S1 pacing rate permitting 1:1 activation, the stimulation intensity was DTE x 2, determined at a CL of 500 ms.

Series [3] relates to ACh-mediated persistent AF in isolated canine coronary-perfused right atria. Put plainly: Acetylcholine (ACh)-mediated persistent AF model in coronary-perfused right atria. As to conditions: ranolazine 5 μM, dronedarone 10 μM. Here is the method:
To assess the anti-AF potential of ranolazine, dronedarone, and their combination, we used an acetylcholine (ACh, 1.0 μM)-mediated AF model. In the presence of ACh, premature electrical stimulation (PES) or rapid pacing (CL=50-80 ms) induces persistent AF in 100% of canine coronary-perfused right atrial preparations.^9 The effect of the drugs was assessed to prevent (series 1) the induction of AF. In a separate set of preparations, the ability of these agents was evaluated to terminate (series 2) persistent AF. In the first series, ACh was added to the perfusate 20-30 min after the start of perfusion with 5 μM ranolazine, 10 μM dronedarone, or the combination of these agents. This was followed by attempts to induce the arrhythmia electrically. In the second series, the agents were added to the perfusate during ACh-mediated persistent AF (on the 5-6th minutes after the start of the arrhythmia). In cases in which the drug terminated AF, we attempted to re-induce the arrhythmia with rapid pacing.

Series [4] relates to female rabbit isolated heart treated with E-4031. Put plainly: Torsades de pointes in rabbit isolated heart treated with E-4031. As to conditions: E-4031 60 nM. Here is the method: Each rabbit was sedated using intramuscular injections of 6 mg/kg xylazine and 40 mg/kg ketamine and then anesthetized using a “cocktail” of ketamine (15 mg/kg)+xylazine (4 mg/kg) in 1.5 ml saline. The ketamine/xylazine cocktail was administered as an i.v. bolus via the marginal ear vein. After anesthesia was confirmed, the thorax was opened and the heart was quickly excised. The heart was placed in a modified Krebs-Henseleit (K-H) physiological saline solution at room temperature. […] CPP was measured (with a Biopac MP 150 pressure transducer, Goleta, Calif.) from a side port of the aortic catheter. To facilitate exit of fluid from the chamber of the left ventricle (LV), the leaflets of the mitral valve were trimmed with fine spring-handled scissors. The right atrial wall was partially removed.
Complete AV block was induced by thermo-ablation of the AV nodal area. […] A bipolar Teflon-coated electrode was placed on the right ventricular septum to pace the heart. Electrical stimuli 3 ms in width and 3-fold threshold amplitude were delivered to the pacing electrode at a frequency of 1 Hz throughout the experiments using a Grass S48 stimulator (W. Warwick, R.I.).
After initiation of ventricular pacing, a 30-40 min equilibration delay was allowed for heart rate (and CPP) to achieve a steady state, an essential experimental condition for recording a good quality monophasic action potential (MAP) recording.
Monophasic action potential (MAP) and ECG electrodes from Harvard Apparatus Inc. (Holliston, Mass.) were used to record heart rate (in beats per minute, or bpm), left ventricular MAPs and a bipolar ECG MAP electrodes were pressure contact Ag—AgCl cells attached to a circular holder with springs to keep the electrodes in contact with the LV epicardial surface. Two MAP electrodes were placed on the epicardial ventricular free wall below the level of the atrial-ventricular valves, one at the base to record a basal MAP and one at the apex to record an apical MAP. […] Signals were saved on a computer hard disk for subsequent analysis. Bipolar electrocardiograms (ECG) were generated using an isolated-heart ECG apparatus (Harvard Apparatus, Holliston, Mass.) attached to Biopac amplifier system.

For the next series, the system named is patients with AF. The following applies: DIONYSOS trial, 6 months of follow-up; cited from earlier work.
For series [5] the following is noted: cited from earlier work.
Series [6] concerns spontaneous (intrinsic) atrial rate in guinea pig isolated hearts. Put plainly: Spontaneous atrial rate in guinea pig isolated hearts. As to conditions: verapamil 10 μM; from 225±3. From the text:
To perfuse the heart by the Langendorff method, the transected aorta was slid onto a glass cannula and secured by a ligature. […] To facilitate the exit of fluid from the left ventricle, the leaflets of the mitral valve were trimmed with fine spring-handled scissors. […] Experimental interventions were always preceded and followed by control measurements.

The mark [7] stands for this setting: ACh 1 μM-mediated persistent AF.

The structures appear in SMILES notation. Like-named read-outs stand apart in the source and are kept apart here.

Turning to `CC(=O)OCC[N+](C)(C)C` [ACh, Acetylcholine], the “Inducibility of AF” value in series [1] (S1S2 protocol, acetylcholine 0.6-1 μM, ranolazine 6 μM in presence of 0.3 μM dronedarone) was found to be 100%. Also, the “Shortest S1-S1 (shortest CL permitting 1:1 activation)” value in series [2] (in ms (unit assumed)) is 56 ± 7. In addition, in series [2] (pectinate muscle, CL of 500 ms), the APD90 is 41 ± 6 ms and the ERP was determined as 52 ± 9 ms. In addition, in series [3] (setting [7]), the “Termination Persistent AF” value is given as 0% and the “Termination Persistent AF (atria terminated/atria tested)” value was 0/10. In addition, in series [3] (in presence of ACh 1 μM), the “Induction of Persistent AF” value was determined as 100%.
For `Cc1cccc(CCN2CCC(C(=O)c3ccc(NS(C)(=O)=O)cc3)CC2)n1` [E-4031, N-[4-[[1-[2-(6-Methyl-2-pyridinyl)ethyl]-4-piperidinyl]carbonyl]phenyl]methanesulfonamide], the “Occurrences of torsades de pointes (TdP) (hearts)” value in series [4] (dronedarone 10 μM) is on record as 4/6. The “TdP (FIG. 18)” value in series [4] (dronedarone 0.1-0.3 μM) was “induced spontaneous and 3-sec pause-triggered episodes of TdP”. Moreover, the “Incidence of TdP and EADs” value in series [4] (dronedarone 0.3-10 μM, ranolazine 6 and 10 μM) is on record as “markedly increased the incidence of torsades de pointes”.
Regarding `O=C(NCC1CCCCN1)c1cc(OCC(F)(F)F)ccc1OCC(F)(F)F` (stereo not shown) [Flecainide], the “Abolition of inducible AF (hearts)” value in series [1] (in presence of ACh, dronedarone 0.3 μM alone, flecainide positive control) is reported as “abolished all episodes of AF”.
For the compound `CCCCc1oc2ccccc2c1C(=O)c1cc(I)c(OCCN(CC)CC)c(I)c1` [amiodarone], in the series with patients with AF, the “Rate of recurrence of AF” value is given as 42%. For the same compound, the “Patients who discontinue use due to intolerant side effects” value in series [5] (after one year) was 8-18%. Moreover, the figures for the Extracardiac complications result in series [5] (first year of treatment) and in series [5] (longer term treatment) were “up to 15%” and “up to 50%”, respectively.
As to `COc1ccc(CCN(C)CCCC(C#N)(c2ccc(OC)c(OC)c2)C(C)C)cc1OC` (stereo not shown) [verapamil], the Spontaneous atrial rate in series [6] was determined as 25±24 beats/min.
